The numbers were not newly measured in publication PMC4718634, “Murine GPRC6A Mediates Cellular Responses to L-Amino Acids, but Not Osteocalcin Variants” (PLoS ONE, 2016), which cites them from elsewhere.

For one data set, the system named is GLUTag cells. As to conditions: endogenous; ref [17] (supplement list); cited from earlier work. An excerpt:
(§1) Supplement pone.0146846.s004.docx, table 1 | column: Functional assay

Another data set concerns 22RV1 / PC-3. As to conditions: endogenous; ref [9] (supplement list); cited from earlier work.
Description: as §1

The next data set deals with MC3T3-E1. As to conditions: endogenous; ref cell of this line empty; cited from earlier work.
Description: as §1

The next data set has as its system hC6A. As to conditions: ref [9] (supplement list); cited from earlier work.
Description: as §1

The next data set concerns MA-10 Leyding cells. Particulars: endogenous; ref [15] (supplement list); cited from earlier work.
Description: as §1

The test system of the next data set is TM3 Leydig cells. As to conditions: endogenous; ref [12] (supplement list); cited from earlier work.
Description: as §1

In another data set the test system is TC6. As to conditions: endogenous; ref [11] (supplement list); cited from earlier work.
Description: as §1

In the next data set the test system is Unknown species GPRC6A. As to conditions: ref [11] (supplement list); cited from earlier work.
Description: as §1

The test system of another data set is 3T3-L1 adipocytes. As to conditions: endogenous; ref [16] (supplement list); cited from earlier work.
Description: as §1

For the next data set, the system named is GPRC6A. Particulars: ref [6] (supplement list); cited from earlier work.
Description: as §1

Another data set has as its system 22RV1. Particulars: endogenous, cited from earlier work.
Description: as §1

In the case of `NCCC[C@H](N)C(=O)O` [L-ornithine], the GLP-1 secretion response result in the data set with GLUTag cells is on record as “response”.

As to “OCN: osteoblast-derived peptide, osteocalcin; variant not specified at the place (YLYQWLGAPVPYPDPLEPRREVCELNPDCDELADHIGFQEAYRRFYGPV; UniProt P02818 52-100, looked up)”, in the data set on 22RV1 / PC-3, the “PSA, Runx2 expression response” value was “pERK1/2 – response to Ca^2+, ZnCl2, OCN, Arginine, Testosterone-BSA Proliferation – response to Ca^2+, OCN PSA, Runx2 expression – response to OCN, Arg, R1881 Chemotaxis (22RV1) – response to Ca^2+, OCN”; the Proliferation response entry was “pERK1/2 – response to Ca^2+, ZnCl2, OCN, Arginine, Testosterone-BSA Proliferation – response to Ca^2+, OCN PSA, Runx2 expression – response to OCN, Arg, R1881 Chemotaxis (22RV1) – response to Ca^2+, OCN”; the pERK1/2 response entry was “pERK1/2 – response to Ca^2+, ZnCl2, OCN, Arginine, Testosterone-BSA Proliferation – response to Ca^2+, OCN PSA, Runx2 expression – response to OCN, Arg, R1881 Chemotaxis (22RV1) – response to Ca^2+, OCN”. Also, the SRE-reporter gene response entry in the data set with MC3T3-E1 was “SRE-reporter gene – response to OCN”. Further, the pERK1/2 response result with hC6A is reported as “pERK1/2 – response to Ca^2+, ZnCl2, OCN, Arginine, Testosterone-BSA”. For the same compound, in the data set with MA-10 Leyding cells, the “Ca^2+i response” value was “response”, the “Release of 25-OH-Vit D or Testosterone” value is recorded as “response” and the cAMP response entry was “no response”. In the data set on TM3 Leydig cells, the “Ca2+i response” value is recorded as “negative”, the cAMP response result was “response”, the pCREB response entry is recorded as “response” and the pERK1/2 response result is reported as “negative”. Also, the “pERK1/2, pPKD1 response” value in the data set on TC6 is reported as “pERK1/2, pPKD1 – response to OCN, L-Arg”. Further, the pERK1/2 response entry with Unknown species GPRC6A is listed as “pERK1/2 - response to Ca^2+, L-Arg, OCN”. In the data set with 3T3-L1 adipocytes, the “Adiponectin, PPARγ expression response” value was “cAMP – response to OCN pERK1/2 – response to OCN pCREB – response to OCN Adiponectin, PPARγ expression – response to OCN”; the cAMP response entry is listed as “cAMP – response to OCN pERK1/2 – response to OCN pCREB – response to OCN Adiponectin, PPARγ expression – response to OCN”; the pCREB response result is “cAMP – response to OCN pERK1/2 – response to OCN pCREB – response to OCN Adiponectin, PPARγ expression – response to OCN”; the pERK1/2 response entry is recorded as “cAMP – response to OCN pERK1/2 – response to OCN pCREB – response to OCN Adiponectin, PPARγ expression – response to OCN”. For the same compound, in the data set on GPRC6A, the SRE-reporter gene response entry is “pERK1/2 – response to Ca^2+, Mg^2+, Gd^3+, Al^3+, NPS R568 SRE-reporter gene – response to CaCl2, SrCl2, MgCl2, GdCl3 and OCN”. The “Chemotaxis (22RV1) response” value with 22RV1 (ref [9] (supplement list)) was “pERK1/2 – response to Ca^2+, ZnCl2, OCN, Arginine, Testosterone-BSA Proliferation – response to Ca^2+, OCN PSA, Runx2 expression – response to OCN, Arg, R1881 Chemotaxis (22RV1) – response to Ca^2+, OCN”. For the same compound, the Proliferation response result in the data set on 22RV1 (ref [10] (supplement list)) is listed as “pERK1/2 – response to Testosterone-BSA, Proliferation – response to Ca^2+, OCN, Testosterone-BSA”.
